According to patent US20240252716A1, “SELF-ASSEMBLING NANOFIBROUS ULTRASHORT PEPTIDE HYDROGELS FOR VASCULAR TISSUE ENGINEERING” (KING ABDULLAH UNIVERSITY OF SCIENCE AND TECHNOLOGY, priority 2021, published 2024):
[ ]: non-standard residue; d: D form. Cha = N[C@@H](CC1CCCCC1)C(=O)O

Tests used:
HUVEC cells [1] = assay: LIVE/DEAD staining viability of HUVEC cells cultured in peptide hydrogels; type: cell-based, Human; conditions: cultured within hydrogel; 24 h, 4 days and 7 days; versus Matrigel
Method: Viability of HUVEC cells were evaluated by using LIVE/DEAD® staining at different time points in order to assess the compatibility of peptide scaffolds with cells. In one embodiment, the viability of HUVEC cells was determined after 24 h, 4 days and 7 days of culturing within peptide scaffolds.
In FIG. 3, for living cells were stained in green by calcein AM, while dead cells were stained in red by ethidium homodimer (EthD-1).
HUVEC cells were seeded and treated with peptides according to the protocol described above. After 24 h of incubation, the media was removed and replaced with DPBS solution containing approximately […] calcein AM and […] ethidium homodimer-1 (LIVE/DEAD® Viability/Cytotoxicity Kit, Life Technologies®) and incubated for 30 min in dark. Before imaging, the staining solution was removed and fresh DPBS was added. Stained cells were imaged with ZEISS® fluorescent microscope.
(§1) HUVEC cells were encapsulated in peptide hydrogels in 96 well tissue culture plates. Peptide solution was added to the plate at 40 μL per well. HUVEC cells suspended in 2×PBS were added to each well at 40,000 cells/well and gently mixed. The final concentration of the peptide hydrogel was 1× after the addition of 2×PBS containing cells. […] At pre-determined time points, the 3D cell viability assay, live/dead assay and florescence staining were performed.

HUVECs [2] = assay: Cell attachment of HUVECs on coverslips coated with hydrogels or Matrigel; type: cell-based, Human; conditions: after 4 hours of culture
Method: Cell attachment was evaluated by seeding HUVECs on top of coverslips coated with Matrigel® (control) and different hydrogels. After incubation for 4 hours, efficient cell extension and adhesion in both control and hydrogels can be clearly seen, and also tube-like structure can be observed, as shown in FIG. 4. Furthermore, the number of cells attached was calculated for different scaffold used.

HUVEC cells [3] = assay: 3D cell proliferation assay (CellTiter-Glo, ATP production); type: cell-based, Human
Method: In one embodiment, HUVEC cells have higher proliferation cultured in peptides than in Matrigel®. Proliferation of cells cultured in both hydrogels and Matrigel® was evaluated by measuring the production of ATP after culturing for different period of time. The differences in ATP produced when cultured in different scaffolds was calculated.
HUVEC cells were encapsulated in peptide hydrogels in 96 well tissue culture plates. Peptide solution was added to the plate at 40 μL per well. HUVEC cells suspended in 2×PBS were added to each well at 40,000 cells/well and gently mixed. The final concentration of the peptide hydrogel was 1× after the addition of 2×PBS containing cells. Gelation occurred within 3-5 minutes and subsequently, the culture medium was added to the wells. At pre-determined time points, the 3D cell viability assay, live/dead assay and florescence staining were performed.
The CellTiter-Glo® luminescent 3D cell viability assay is a method to determine the number of viable cells in 3D hydrogels based on quantification of the ATP present, which signals the presence of metabolically active cells. After each time point, an equal amount of CellTiter-Glo® luminescent reagent was added to the same amount of media in each well. The contents were mixed for 5 minutes to digest the hydrogels and then incubated for 10 minutes. After incubation, the luminescence was recorded using a plate reader (PHERAstar® FS, Germany).

HUVECs [4] = assay: Cytoskeletal (actin) staining with rhodamine-phalloidin; type: cell-based, Human; conditions: 24 h of culture
Method: In one embodiment, HUVECs grown in peptide scaffolds maintain their normal morphology and functionality. […] In the present disclosure, the cytoskeleton organization of HUVECs grown in the nanofibers scaffolds was visualized by staining the actin of cells with rhodamine-phalloidin. Cell morphology and the organization of actin structures of HUVECs grown in different scaffolds were compared and shown in FIG. 7.
(§2) Immunostaining was performed after 24 h of culture. In brief, the cells were fixed with 4% paraformaldehyde solution for 30 minutes and incubated in a cold cytoskeleton buffer (3 mM MgCl2, 300 mM sucrose and 0.5% Triton X-100 in PBS solution) for 10 minutes to permeabilize the cell membranes. The permeabilised cells were incubated in blocking buffer solution (5% FBS, 0.1% Tween-20, and 0.02% sodium azide in PBS) for 30 minutes at 37° C., followed by incubation with rhodamine-phalloidin (1:300) for 1 hour at 37° C. In case of endothelial cell markers, the sample incubated with Mouse anti-Endothelial Cell CD146 ( 1/500), Rabbit anti-VWF ( 1/5000) or Mouse anti-CD31 ( 1/50) for 1 hour and followed by secondary antibody. Furthermore, the cells were incubated in DAPI for 5 minutes at room temperature to counterstain the nucleus. Finally, the cells were observed and imaged using a laser scanning confocal microscope (Zeiss® LSM 710 Inverted Confocal Microscope, Germany).

HUVECs [5] = assay: Endothelial cell marker expression (immunostaining); type: cell-based, Human; conditions: similar to that in Matrigel
Method: The functionality of HUVECs in different scaffolds was determined by the expression of universal endothelial cell markers, including CD34, CD146 and Von-Willebrand factor (vWF).
as §2

HUVECs [6] = assay: In vitro angiogenesis study (tube-like structure formation); type: cell-based, Human; conditions: for capillary-like structure formation by HUVECs: 2-6 hours of culture, no growth factors added to peptide scaffolds; for length of tube-like structure versus Matrigel: ImageJ, peptides without growth factor; for number of junctions of tube-like structure versus Matrigel: peptide hydrogels without growth factor, Matrigel with growth factors
Method: In one embodiment, HUVEC cells form tube-like structures when cultured in peptide hydrogels. In determining the effects of peptide scaffolds in facilitating the formation of the capillary-like structure formed by HUVEC cells, there was no addition of growth factors, after cells were plated on the surfaces of IIFK (SEQ ID NO. 1) and IIZK (SEQ ID NO. 2) scaffolds and Matrigel® (control). […] However, Matrigel® scaffold contains several growth factors that stimulate capillary-like structure formation rapidly. […] Tube length and diameter were evaluated using ImageJ software. […] In our study, no growth factors were added to the peptide scaffold.
Peptide hydrogel or Matrigel® were placed in 24 well plate, and human umbilical vein endothelial cells (HUVECs) 40,000 cells/well were added on top of peptide gel or Matrigel®. The amount of solutions in each well is about 200 μl. […] Cells were then investigated using inverted microscope, and images were analyzed by Image J using Angiogenesis Analyzer.

[7] = Peptide hydrogel preparation / gelation; type: physicochemical; conditions: water, then PBS to 1x final
Description: The solution-gel transition of both peptides (IIFK (SEQ ID NO. 1) and IIZK (SEQ ID NO. 2)) were induced by the addition of 1×PBS. Scanning electron microscopy (SEM) and transmission electron microscopy (TEM) examinations also confirmed the self-assembling nanofiber formations, as shown in FIGS. 1 and 2. The scale bars are 1 μm in FIGS. 1 and 200 nm in FIG. 2.
The tetramer self-assembling peptides Ac-IIZK (SEQ ID NO. 2)-NH2 (Ac-Ile-Val-Cha-Lys-NH2) and Ac-IIFK (SEQ ID NO. 1)-NH2 (Ac-Ile-Val-Phe-Lys-N H2) were manually synthesized by using solid phase peptide synthesis and purified to above 95% via HPLC. Amino acid and peptide content analysis were performed. Lyophilized peptide was dissolved in milliQ® water and vortexed to get a homogenous solution. Subsequently, 10×phosphate buffered saline at the final concentration of 1× was added to the peptide solution and vortexed shortly. Gelation occurred within few seconds in IIZK (SEQ ID NO. 2) at I mg/mL and IIFK (SEQ ID NO. 1) at 2 mg/mL peptide concentration.
as §1, with “mixed.” for “mixed. The final concentration of the peptide hydrogel was 1× after the addition of 2×PBS containing cells.”

Row | Substance | viability of HUVEC cells (LIVE/DEAD staining) compared to Matrigel (HUVEC cells [1]) | number of attached cells versus Matrigel (HUVECs [2]) | ATP production by HUVEC cells versus Matrigel (HUVEC cells [3]; after 24 h of culture) | ATP production by HUVEC cells versus Matrigel (HUVEC cells [3]; after 7 day of culture) | cell morphology and actin organization (HUVECs [4]) | expression of endothelial cell markers CD34, CD146 and vWF (HUVECs [5]) | capillary-like structure formation by HUVECs (HUVECs [6]) | length of tube-like structure versus Matrigel (HUVECs [6]) | number of junctions of tube-like structure versus Matrigel (HUVECs [6]) | peptide concentration at which gelation occurred within few seconds [7] [mg/mL]
1 | Ac-IV[Cha]K-NH2 [IIZK] | higher viability | no significant difference | no significant difference | significantly higher | fibroblastic morphology | well expressed | formed capillary-like structure networks | no significant difference | comparable | 
2 | Ac-Ile-Val-Phe-Lys-N H2 [IIFK] | higher viability | no significant difference | no significant difference | significantly higher | fibroblastic morphology | well expressed | formed capillary-like structure networks | no significant difference | comparable | 2
